Data set [1] concerns recombinant NL4-3 virus (Renilla luciferase in nef). Put plainly: HIV cell culture assay (antiviral activity, luciferase readout in MT-2 cells). The format is cell-based. The conditions noted are these: Renilla, NL43. On the procedure: HIV cell culture assay—MT=2 cells, 293T cells and the proviral DNA clone of NL4-3 virus were obtained from the NIH AIDS Research and Reference Reagent Program. MT=2 cells were propagated in RPMI 1640 media supplemented with 10% heat inactivated fetal bovine serum (FBS), […] penicillin G and up to 100 units/mL streptomycin. The 293T cells were propagated in DMEM media supplemented with 10% heat inactivated FBS, […] penicillin G and […] streptomycin. A recombinant NL4-3 proviral clone, in which a section of the nef gene was replaced with the Renilla luciferase gene, was used to make the reference virus used in these studies. The recombinant virus was prepared through transfection of the recombinant NL4-3 proviral clone into 293T cells using Transit-293 Transfection Reagent from Mirus Bio LLC (Madison, Wis.). Supernatent was harvested after 2-3 days and the amount of virus present was titered in MT=2 cells using luciferase enzyme activity as a marker by measuring luciferase enzyme activity. Luciferase was quantitated using the EnduRen Live Cell Substrate from Promega (Madison, Wis.). Antiviral activities of compounds toward the recombinant virus were quantified by measuring luciferase activity in MT=2 cells infected for 4-5 days with the recombinant virus in the presence of serial dilutions of the compound.
The 50% effective concentration (EC50) was calculated by using the exponential form of the median effect equation where (Fa)=1/[1+(ED50/drug conc.)m] (Johnson V A, Byington R T. Infectivity Assay. In Techniques in HIV Research. ed. Aldovini A, Walker B D. 71-76. New York: Stockton Press. 1990). The 50% inhibitory concentration (EC50) was calculated by using the exponential form of the median effect equation where percent inhibition=1/[1+(EC50/drug concentration)m], where m is a parameter that reflects the slope of the concentration-response curve.

Data set [2] is described as follows: Compound cytotoxicity, XTT-based colorimetric assay. The format is cell-based. The conditions noted are these: human; uninfected MT2 cells, day 4, XTT. On the procedure: Compound cytotoxicity and the corresponding CC50 values were determined using the same protocol as described in the antiviral assay except that uninfected cells were used. Cytotoxicity was assessed on day 4 in uninfected MT2 cells by using an XTT (2,3-bis[2-Methoxy-4-nitro-5-sulfophenyl]-2H-tetrazolium-5-carboxyanilide inner salt)-based colorimetric assay (Sigma-Aldrich, St Louis, Mo.).
A general note: Tetrazolium assays rely on reduction of a dye to a coloured formazan, in cell work by metabolically active cells.

One may read the EC50 as the concentration that produces a half-maximal response. In general, CC50 refers to the concentration that lowers cell viability or growth by half. High values mean better tolerance by the cells, low ones harm at low concentration. `Cn1nc(NS(C)(=O)=O)c2c(Cl)ccc(-n3c([C@H](Cc4cc(F)cc(F)c4)NC(=O)Cn4nc(C(F)F)c5c4C(F)(F)[C@@H]4C[C@H]54)nc4cc(-c5ccn(CC(F)(F)C(F)F)n5)ccc4c3=O)c21` (atropisomer, axis not shown; (P)) [Example 47, N—((S)-1-((3P)-3-(4-chloro-1-methyl-3-(methylsulfonamido)-1H-indazol-7-yl)-4-oxo-7-(1-(2,2,3,3-tetrafluoropropyl)-1H-pyrazol-3-yl)-3,4-dihydroquinazolin-2-yl)-2-(3,5-difluorophenyl)ethyl)-2-((3bS,4aR)-3-(difluoromethyl)-5,5-difluoro-3b,4,4a,5-tetrahydro-1H-cyclopropa[3,4]cyclopenta[1,2-c]pyrazol-1-yl)acetamide]: the EC50 in data set [1] is 0.07 nM. Moreover, the CC50 at 4 days in data set [2] is more than 100 nM.

Regarding `Cn1nc(NS(C)(=O)=O)c2c(Cl)ccc(-n3c([C@H](Cc4cc(F)cc(F)c4)NC(=O)Cn4nc(C(F)(F)F)c5c4C(F)(F)[C@@H]4C[C@H]54)nc4cc(-c5ccn(CC(C)(F)F)n5)ccc4c3=O)c21` (atropisomer, axis not shown; (P)) [Example 66, N—((S)-1-((3P)-3-(4-chloro-1-methyl-3-(methylsulfonamido)-1H-indazol-7-yl)-7-(1-(2,2-difluoropropyl)-1H-pyrazol-3-yl)-4-oxo-3,4-dihydroquinazolin-2-yl)-2-(3,5-difluorophenyl)ethyl)-2-((3bS,4aR)-5,5-difluoro-3-(trifluoromethyl)-3b,4,4a,5-tetrahydro-1H-cyclopropa[3,4]cyclopenta[1,2-c]pyrazol-1-yl)acetamide], the EC50 in data set [1] worked out at 0.069 nM. In addition, the half-maximal cytotoxic concentration (CC50) at 4 days in data set [2] is more than 100 nM.

For the compound `COc1nc(C)cc(-c2ccc3c(=O)n(-c4ccc(Cl)c5c(NS(C)(=O)=O)nn(C)c45)c([C@H](Cc4cc(F)cc(F)c4)NC(=O)Cn4nc(C(F)F)c5c4C(F)(F)[C@@H]4C[C@H]54)nc3c2)n1` (atropisomer, axis not shown; (P)) [Example 16, N—((S)-1-((3P)-3-(4-chloro-1-methyl-3-(methylsulfonamido)-1H-indazol-7-yl)-7-(2-methoxy-6-methylpyrimidin-4-yl)-4-oxo-3,4-dihydroquinazolin-2-yl)-2-(3,5-difluorophenyl)ethyl)-2-((3bS,4aR)-3-(difluoromethyl)-5,5-difluoro-3b,4,4a,5-tetrahydro-1H-cyclopropa[3,4]cyclopenta[1,2-c]pyrazol-1-yl)acetamide], the half-maximal effective concentration (EC50) in data set [1] was 0.11 nM. The CC50 at 4 days in data set [2] is more than 500 nM.

For `Cn1nc(NS(C)(=O)=O)c2c(Cl)ccc(-n3c([C@H](Cc4cc(F)cc(F)c4)NC(=O)Cn4nc(C(F)F)c5c4C(F)(F)[C@@H]4C[C@H]54)nc4cc(-c5ccnc(S(C)(=O)=O)n5)ccc4c3=O)c21` (atropisomer, axis not shown; (P)) [Example 9, N—((S)-1-((3P)-3-(4-chloro-1-methyl-3-(methylsulfonamido)-1H-indazol-7-yl)-7-(2-(methylsulfonyl)pyrimidin-4-yl)-4-oxo-3,4-dihydroquinazolin-2-yl)-2-(3,5-difluorophenyl)ethyl)-2-((3bS,4aR)-3-(difluoromethyl)-5,5-difluoro-3b,4,4a,5-tetrahydro-1H-cyclopropa[3,4]cyclopenta[1,2-c]pyrazol-1-yl)acetamide], the concentration giving a half-maximal response (EC50) in data set [1] came out at 0.15 nM. In data set [2], this compound gave a CC50 at 4 days of more than 500 nM.

With `Cn1nc(NS(C)(=O)=O)c2c(Cl)ccc(-n3c([C@H](Cc4cc(F)cc(F)c4)NC(=O)Cn4nc(C(F)F)c5c4C(F)(F)[C@@H]4C[C@H]54)nc4cc(-c5cncc(C(F)(F)F)n5)ccc4c3=O)c21` (atropisomer, axis not shown; (P)) [Example 22, N—((S)-1-((3P)-3-(4-chloro-1-methyl-3-(methylsulfonamido)-1H-indazol-7-yl)-4-oxo-7-(6-(trifluoromethyl)pyrazin-2-yl)-3,4-dihydroquinazolin-2-yl)-2-(3,5-difluorophenyl)ethyl)-2-((3bS,4aR)-3-(difluoromethyl)-5,5-difluoro-3b,4,4a,5-tetrahydro-1H-cyclopropa[3,4]cyclopenta[1,2-c]pyrazol-1-yl)acetamide], the EC50 in data set [1] is 0.06 nM. Moreover, in data set [2], the CC50 at 4 days is more than 100 nM.

As for `Cn1nc(NS(C)(=O)=O)c2c(Cl)ccc(-n3c([C@H](Cc4cc(F)cc(F)c4)NC(=O)Cn4nc(C(F)F)c5c4C(F)(F)[C@@H]4C[C@H]54)nc4cc(-c5cc(C(F)(F)F)ncn5)ccc4c3=O)c21` (atropisomer, axis not shown; (P)) [Example 25, N—((S)-1-((3P)-3-(4-chloro-1-methyl-3-(methylsulfonamido)-1H-indazol-7-yl)-4-oxo-7-(6-(trifluoromethyl)pyrimidin-4-yl)-3,4-dihydroquinazolin-2-yl)-2-(3,5-difluorophenyl)ethyl)-2-((3bS,4aR)-3-(difluoromethyl)-5,5-difluoro-3b,4,4a,5-tetrahydro-1H-cyclopropa[3,4]cyclopenta[1,2-c]pyrazol-1-yl)acetamide], the EC50 in data set [1] was found to be 0.083 nM. In data set [2], this compound registered a cytotoxic concentration (CC50) at 4 days of more than 100 nM.

As for `Cn1nc(NS(C)(=O)=O)c2c(Cl)ccc(-n3c([C@H](Cc4cc(F)cc(F)c4)NC(=O)Cn4nc(C(F)F)c5c4C(F)(F)[C@H]4C[C@@H]54)nc4cc(-c5ccn(CC6CC6)n5)ccc4c3=O)c21` (atropisomer, axis not shown; (P)) [Example 31, N—((S)-1-((3P)-3-(4-chloro-1-methyl-3-(methylsulfonamido)-1H-indazol-7-yl)-7-(1-(cyclopropylmethyl)-1H-pyrazol-3-yl)-4-oxo-3,4-dihydroquinazolin-2-yl)-2-(3,5-difluorophenyl)ethyl)-2-((3bS,4aR)-3-(difluoromethyl)-5,5-difluoro-3b,4,4a,5-tetrahydro-1H-cyclopropa[3,4]cyclopenta[1,2-c]pyrazol-1-yl)acetamide], the EC50 in data set [1] worked out at 0.11 nM. In data set [2], the half-maximal cytotoxic concentration (CC50) at 4 days was more than 500 nM.

For `Cn1nc(NS(C)(=O)=O)c2c(Cl)ccc(-n3c([C@H](Cc4cc(F)cc(F)c4)NC(=O)Cn4nc(C(F)F)c5c4C(F)(F)[C@@H]4C[C@H]54)nc4cc(-c5cnn(CC(F)(F)F)c5)ccc4c3=O)c21` (atropisomer, axis not shown; (P)) [Example 41, N—((S)-1-((3P)-3-(4-chloro-1-methyl-3-(methylsulfonamido)-1H-indazol-7-yl)-4-oxo-7-(1-(2,2,2-trifluoroethyl)-1H-pyrazol-4-yl)-3,4-dihydroquinazolin-2-yl)-2-(3,5-difluorophenyl)ethyl)-2-((3bS,4aR)-3-(difluoromethyl)-5,5-difluoro-3b,4,4a,5-tetrahydro-1H-cyclopropa[3,4]cyclopenta[1,2-c]pyrazol-1-yl)acetamide], the EC50 in data set [1] stood at 0.097 nM. In addition, in data set [2], the cytotoxic concentration (CC50) at 4 days is more than 100 nM.

Regarding `Cn1nc(NS(C)(=O)=O)c2c(Cl)ccc(-n3c([C@H](Cc4cc(F)cc(F)c4)NC(=O)Cn4nc(C(F)F)c5c4C(F)(F)[C@@H]4C[C@H]54)nc4cc(-c5cnn(CC(F)F)c5)ccc4c3=O)c21` (atropisomer, axis not shown; (P)) [Example 34, N—((S)-1-((3P)-3-(4-chloro-1-methyl-3-(methylsulfonamido)-1H-indazol-7-yl)-7-(1-(2,2-difluoroethyl)-1H-pyrazol-4-yl)-4-oxo-3,4-dihydroquinazolin-2-yl)-2-(3,5-difluorophenyl)ethyl)-2-((3bS,4aR)-3-(difluoromethyl)-5,5-difluoro-3b,4,4a,5-tetrahydro-1H-cyclopropa[3,4]cyclopenta[1,2-c]pyrazol-1-yl)acetamide], the EC50 in data set [1] is 0.054 nM. Besides, the CC50 at 4 days in data set [2] is more than 100 nM.

Turning to `Cn1nc(NS(C)(=O)=O)c2c(Cl)ccc(-n3c([C@H](Cc4cc(F)cc(F)c4)NC(=O)Cn4nc(C(F)F)c5c4C(F)(F)[C@@H]4C[C@H]54)nc4cc(-c5ccn(CC(F)(F)C(F)(F)F)n5)ccc4c3=O)c21` (atropisomer, axis not shown; (P)) [Example 48, N—((S)-1-((3P)-3-(4-chloro-1-methyl-3-(methylsulfonamido)-1H-indazol-7-yl)-4-oxo-7-(1-(2,2,3,3,3-pentafluoropropyl)-1H-pyrazol-3-yl)-3,4-dihydroquinazolin-2-yl)-2-(3,5-difluorophenyl)ethyl)-2-((3bS,4aR)-3-(difluoromethyl)-5,5-difluoro-3b,4,4a,5-tetrahydro-1H-cyclopropa[3,4]cyclopenta[1,2-c]pyrazol-1-yl)acetamide], the EC50 in data set [1] was 0.091 nM. The same compound returned a CC50 at 4 days in data set [2] of more than 100 nM.
